Reference: PubChem BioAssay (NCI)
Several values for one entry are separate records, joined by “and”; a condition that tells them apart may be missing. Equal entries are not always repeated.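 Growth conditions: 96-well plates. Treatment: test compound, 48 hours, 5 concentrations. Analysis: linear interpolation between bracketing concentrations; unreached endpoints set to highest concentration. The concentration for 50% growth inhibition is given as GI50. TGI denotes the concentration required for complete inhibition of growth.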

What was measured:
Experiment in all cases: inhibition of tumour cell growth, NCI panel, 48 h
T-47D breast = system: T-47D breast
U251 CNS = system: U251 CNS
NCI-H522 lung = system: NCI-H522 lung
RPMI-8226 leukemia = system: RPMI-8226 leukemia
SK-OV-3 ovarian = system: SK-OV-3 ovarian
HCT-15 colon = system: HCT-15 colon
COLO 205 colon = system: COLO 205 colon
SNB-75 CNS = system: SNB-75 CNS
MCF7 breast = system: MCF7 breast
OVCAR-4 ovarian = system: OVCAR-4 ovarian

Row | Structure (SMILES) | TGI (T-47D breast) [µM] | TGI (U251 CNS) | TGI (NCI-H522 lung) | TGI (RPMI-8226 leukemia) [µM] | TGI (SK-OV-3 ovarian) | TGI (HCT-15 colon) | TGI (COLO 205 colon) | TGI (SNB-75 CNS) | TGI (MCF7 breast) | TGI (OVCAR-4 ovarian) | GI50 (U251 CNS) [µM] | GI50 (OVCAR-4 ovarian) [µM] | GI50 (NCI-H522 lung) [µM] | GI50 (SK-OV-3 ovarian) [µM] | GI50 (COLO 205 colon) [µM] | GI50 (SNB-75 CNS) [µM] | GI50 (MCF7 breast) [µM]
1 | c1ccc(N=C2SC3=Nc4cccc5cccc(c45)N3C2=Nc2ccccc2)cc1 | > 100 | > 100 µM | > 100 µM | > 100 | > 100 µM | > 100 µM | > 100 µM | > 100 µM | > 100 µM |  |  |  |  |  |  |  | 
2 | O=C(CCC(=O)c1ccc(Cl)cc1)NO | > 100 | > 100 µM | > 100 µM | > 100 | > 100 µM | > 100 µM | > 100 µM | > 100 µM | > 100 µM | > 100 µM |  |  |  |  |  |  | 
3 | COc1cc([C@@H]2c3cc4c(cc3[C@@H](Nc3ccc([N+](=O)[O-])cc3C(=O)c3ccccc3)[C@H]3COC(=O)[C@H]23)OCO4)cc(OC)c1OC | > 100 | > 100 µM | > 51 µM | > 100 | > 100 µM |  |  | > 100 µM | > 100 µM | > 100 µM |  |  |  |  |  |  | 
4 | CCOC(=O)C(NC(C)=O)(Nc1ccc(F)cc1)C(F)(F)F (stereo unspecified) | 81.5 | > 100 µM | > 100 µM | > 100 | > 100 µM | > 100 µM | > 100 µM | > 100 µM | > 100 µM | > 100 µM |  |  |  |  |  |  | 
5 | COc1ccc(C2c3cc4c(cc3OC(NNS(=O)(=O)c3ccc(C)cc3)C2C)OCO4)cc1 (stereo unspecified) | > 100 | > 100 µM | > 100 µM | > 100 | > 100 µM | > 100 µM | > 100 µM | > 100 µM | > 100 µM |  |  |  |  |  |  |  | 
6 | COc1ccc(C(OCC2OC(n3cc(C)c(=O)[nH]c3=O)CC2n2cc(Cn3cc(I)c(=O)[nH]c3=O)nn2)(c2ccccc2)c2ccccc2)cc1 (stereo unspecified) | > 100 | > 100 µM | > 100 µM | > 100 | > 100 µM | > 100 µM | > 100 µM | > 100 µM | > 100 µM | > 100 µM |  |  |  |  |  |  | 
7 | COc1cc(/C=C/C(=N\NS(=O)(=O)c2ccc(C)cc2)c2sc(NNC(C)=O)nc2C)ccc1O | > 100 | > 100 µM | > 100 µM | > 100 | > 100 µM | > 100 µM | > 100 µM | > 100 µM | > 100 µM | > 100 µM |  |  |  |  |  |  | 
8 | Cc1ccccc1-n1c(=O)c2ncn(CCCl)c2n(-c2ccccc2C)c1=S | > 100 | > 100 µM | > 100 µM | > 100 | > 100 µM | > 100 µM | > 100 µM | > 100 µM | > 100 µM | > 100 µM |  |  |  |  |  |  | 
9 | Cc1c2cnccc2c(C)c2c1c1ccccc1n2CCCN | 2.03 | 0.911 µM and 0.523 µM | 1.28 µM and 0.281 µM | 0.671 | 1.71 µM and 1.25 µM | 0.724 µM and 1.11 µM | 0.986 µM and 0.629 µM | 1.48 µM and 0.368 µM | 1.19 µM and 0.277 µM | 0.665 µM and 0.246 µM | 0.0696 | 0.0661 | 0.108 | 0.278 | 0.18 | 0.169 | 0.0474
10 | CC(C)CC(=O)OC[n+]1ccc(-c2c(COC(=O)NC(C)C)c(COC(=O)NC(C)C)c3n2CCC3)cc1 | > 100 | > 100 µM | > 100 µM | > 100 | > 100 µM | > 100 µM | > 100 µM | > 100 µM | > 100 µM | > 100 µM |  |  |  |  |  |  | 
11 | O=[N+]([O-])C(=C1NCCN1)/C(Cl)=C(\Cl)Br | 40.6 | > 100 µM | 44.6 µM | 62.4 | > 100 µM | 7.93 µM | 42.6 µM | > 86.3 µM | > 78.7 µM | > 100 µM |  |  |  |  |  |  | 
12 | Cc1ccc(SCC(CSCCO)OCn2cnc3c2NC(N)=NC32OCCO2)cc1 (stereo unspecified) | > 100 | > 100 µM | > 100 µM | > 100 | > 100 µM | > 100 µM |  | > 100 µM | > 100 µM | > 100 µM |  |  |  |  |  |  | 
13 | O=C1/C(=C/c2ccc(O)cc2)CC/C1=C\c1ccc(O)cc1 | > 100 | > 100 µM | > 100 µM | > 100 | > 100 µM | > 100 µM | > 100 µM | > 100 µM | > 100 µM | > 100 µM |  |  |  |  |  |  | 
14 | CCC1(O)CC2CC(=O)OC2C1O (stereo unspecified) | > 100 | > 100 µM | > 100 µM | > 100 | > 100 µM | > 100 µM | > 100 µM | > 100 µM | > 100 µM | > 100 µM |  |  |  |  |  |  | 
15 | COc1c(C)c(C/C=C(\C)CCCCO[Si](c2ccccc2)(c2ccccc2)C(C)(C)C)c(OC)c(OC)c1OC | > 100 | > 46.4 µM | > 100 µM | > 46.4 | > 46.4 µM | > 46.4 µM | 39.9 µM | > 46.4 µM | > 46.4 µM | > 46.4 µM |  |  |  |  |  |  | 
16 | C[C@@]12C[C@@H](c3ccccc3O1)N1CCCCSC1=N2 | > 100 | > 100 µM | > 100 µM | > 100 | > 100 µM | > 100 µM | > 100 µM | > 100 µM | > 100 µM | > 100 µM |  |  |  |  |  |  | 
17 | Oc1cc2c3c(c1)c1cc4c(cc1c[n+]3CC2)OCO4 | 22.5 |  | 4.38 µM | 6.46 | > 100 µM | > 100 µM | > 40.6 µM | 26.3 µM | > 100 µM | > 48.6 µM |  |  |  |  |  |  | 
